1 molecule from paper PMC9325719 (Nature Communications, 2022) can be followed below.

The target of the experiment is Na+-NQR (Na+-pumping NADH-ubiquinone oxidoreductase), inhibitor site at NqrB N-terminal region (Vibrio cholerae, UniProt A5F5X0, E157A). To be noted: substrates NADH and ubiquinone-1; 50% inhibition not reached at highest concentration; mutant activity 50-60% lower than wild type.

The IC50 is the point on the concentration scale where inhibition reaches its midpoint. Take `CCCCCCCC[C@H]1O[C@H]1C/C=C/C=C/[C@H](O)CC(=O)NC1=C[C@](C)(CC)OC1=O` [korormicin A]: the IC50 was greater than 2000 nM.
